Laboratory results reported in patent US20210353784A1, “DETECTING AND TREATING CANCERS USING CELL PENETRANT MTP53-OLIGOMERIZATION-DOMAIN PEPTIDE” (priority 2020, published 2021).
Like-named read-outs stand apart in the source and are kept apart here.

Legend:
[1] = test system: MDA-MB-468 cells compared to MCF7 cells; settings: 2 h
Protocol: FlowJo software was used to analyze the cytometric data.
The cellular uptake of Cy5p53Tet in these two cell lines was also measured using flow cytometry.
In Vitro Cy5p53Tet Cellular Uptake by Flow Cytometry. Fluorescence-activated cell-sorting (FACS) was used to determine the cellular uptake of Cy5p53Tet. MCF7 and MDA-MB-468 cells were seeded in six-well plates at a density of 5×10^5 cells/well and incubated at 37° C. overnight. On the following day, media were replaced with fresh media containing vehicle control or 100 or 500 nM Cy5p53Tet and further incubated at 37° C. for 2 h. Cells were washed two times with PBS and trypsinized at 37° C. for 5 min. Trypsin was neutralized by adding media, and the cell suspension was spun down. Cell pellets were washed with PBS and resuspended in PBS. FACS was performed on a FACScan (BD Biosciences), processing 2×10^4 events for each sample.

[2] = test system: p53, p73 and PARP1 protein levels in WHIM6 and WHIM25 tumors; assay: Western blot of p53, p73 and PARP1 protein levels in PDX tumors after Cy5p53Tet injection; type: in vivo, NSG mice
Protocol: 25 μg of proteins were run on 12% polyacrylamide gel and the Cy5p53Tet peptide accumulated in tumors was scanned at Cy5 channel and quantified. The intensity of Cy5p53Tet peptide was analyzed by ImageJ. p53 and MDM2 protein levels from the WHIM6 and WHIM25 tumors post-injection with Cy5p53Tet peptide at 1 hr, 2 hr and 3 hr were determined by Western blot analysis. 25 ug of proteins were load on 12% SDS-PAGE gel.
FIG. 5C is a Western blot analysis showing p53, p63 and p73 protein levels from the WHIM6 and WHIM25 tumors 2 hr post injection with Cy5p53Tet peptide. 75 ug of proteins were load on 10% SDS-PAGE gel (left panel). p53, PARP1 and p73 protein levels from the WHIM6 and WHIM25 tumors 1 hr, 2 hr and 3 hr post injection with Cy5p53Tet peptide were determined by Western blot analysis (right panel). 50 ug of proteins were load on 10% SDS-PAGE gel.
PDX models have been used in translational cancer research to validate the mechanisms that link specific biomarkers to treatment efficacy that could make clinical decisions. The coexpression of mtp53 and PARP1 proteins can be biomarkers for companion diagnostics using PDX models with mtp53. […] Uptake of the Cy5p53Tet peptide in WHIM6 and WHIM25 tumors was assessed on an in vivo epifluorecent imaging system (IVIS). The Cy5p53Tet peptide was detected in both TNBC PDX tumors; however, there was a higher Cy5 fluorescence signal in the tumor site of WHIM6 compared to tumor site of WHIM25 (FIG. 5A, represent picture of 2 hr post injection). […] Samples were run on 12% polyacrylamide gel and the Cy5p53Tet peptide accumulated in tumors was scanned at Cy5 channel and quantified. […]
Given the high degree of structural similarity of the tetramerization domain shared by the p53 family members, p63, and p73, the Cy5p53Tet peptide is believed to bind to TD of p63 or p73 and cause the Cy5p53Tet peptide accumulation in WHIM6 tumors. […] A higher level of p63 was detected in WHIM6 than in WHIM25 tumors (FIG. 5C left panel, compare lane 1 to 2). p73 protein levels were very low in both WHIM6 and WHIM25 tumors. […]

[3] = test system: WHIM6 and WHIM25 tumors; assay: Epifluorescence imaging (IVIS) of Cy5p53Tet uptake in bilateral PDX WHIM6/WHIM25 tumors; type: in vivo, NSG mice; settings: 10 nmol tail vein
Protocol: In vivo optical imaging of Cy5p53Tet peptide uptake in bilateral PDX WHIM6/WHIM25 xenograft models. 2 million WHIM6 cells and WHIM25 cells were injected subcutaneously on the left and right shoulders of each mouse. 10 nmol Cy5p53Tet peptide was intravenously injected to each mouse when tumor size reached to 100-200 mm^3. At 1 hr, 2 hr and 3 hr post Cy5p53Tet peptide injection, the tumors were removed and the epifluorescence images were taken using an IVIS Spectrum. […] Cy5p53Tet peptide epifluorescence intensity quantification in WHIM6 and WHIM25 tumors was analyzed.
First, WHIM6/WHIM25 bilateral PDX tumor-bearing NSG mice were tail vein injected with 10 nmol of Cy5p53Tet peptide to study its delivery efficacy (FIG. 5A). Then, the WHIM6 and WHIM25 tumors were removed at 1, 2, and 3 hr post-injection. Uptake of the Cy5p53Tet peptide in WHIM6 and WHIM25 tumors was assessed on an in vivo epifluorecent imaging system (IVIS). […] The Cy5p53Tet peptide signal was investigated in PDX tumor tissue by extracting proteins from the WHIM6 and WHIM25 tumors post-injection with the Cy5p53Tet peptide at 1 hr, 2 hr, and 3 hr, and the Cy5p53Tet peptide effects were characterized in PDX models (FIG. 5B). Samples were run on 12% polyacrylamide gel and the Cy5p53Tet peptide accumulated in tumors was scanned at Cy5 channel and quantified. […]

[4] = test system: WHIM6 and WHIM25 tumors; assay: SDS-PAGE Cy5 signal of protein extracts from WHIM6 and WHIM25 PDX tumors; type: in vivo, NSG mice; settings: SDS-PAGE of tumor extracts
Protocol: First, WHIM6/WHIM25 bilateral PDX tumor-bearing NSG mice were tail vein injected with 10 nmol of Cy5p53Tet peptide to study its delivery efficacy (FIG. 5A). Then, the WHIM6 and WHIM25 tumors were removed at 1, 2, and 3 hr post-injection. Uptake of the Cy5p53Tet peptide in WHIM6 and WHIM25 tumors was assessed on an in vivo epifluorecent imaging system (IVIS). […] The Cy5p53Tet peptide signal was investigated in PDX tumor tissue by extracting proteins from the WHIM6 and WHIM25 tumors post-injection with the Cy5p53Tet peptide at 1 hr, 2 hr, and 3 hr, and the Cy5p53Tet peptide effects were characterized in PDX models (FIG. 5B). Samples were run on 12% polyacrylamide gel and the Cy5p53Tet peptide accumulated in tumors was scanned at Cy5 channel and quantified. […] In addition, p53 and MDM2 protein levels were checked upon Cy5p53Tet peptide treatment in PDX tumors.

[5] = test system: MDA-MB-468 cells; settings: 500 nM, 24 h; mtp53 R273H
Protocol: (§1) Three independent experiments with biological replicates were performed for all ±SEM *p-value ≤0.05, **p-value ≤0.01, ***p-value ≤0.001.
(§2) Toxicity to normal cells and tissues represents an important barrier for drug delivery, and an advantage of cell penetrating peptide-based therapies is their low toxicity compared to most drug carriers. To evaluate the toxicity of Cy5p53Tet to breast cancer cells and normal breast mammary epithelial cells, the viability of cells was evaluated following peptide treatment (FIG. 1G).
(§3) Peptidecytotoxicity Assay. A total of 1.25×10^5 cells were seeded in a 12-well plate the day before and grown at 37° C. Cells were treated with 500 nM Cy5p53Tet for 24 h, and 0.1 mL MTT solution [5 mg mL^−1 (3-(4, 5-dimethylthiazolyl-2)-2, 5-diphenyltetrazolium bromide] was added to the cells and incubated at 37° C. for 1 h. The cells were then resuspended in 0.04 N hydrochloric acid diluted in isopropanol and incubated in the dark on a shaker for 5 min at room temperature. The absorbance was quantified at 550 nm, and the background absorbance was subtracted at 620 nm.

[6] = test system: HCC70; settings: 500 nM, 24 h; mtp53 R248Q
Protocol: as §1, §2, §3

Substance: H-CysCy5-RKKRRQRRGEYFTLQIRGRERFEMFRELNEALELK-OH (N-terminal Cy5; Synthetic peptide based on p53 protein) [Cy5p53Tet]
- geometric MFI, mtp53-expressing MDA-MB-468 cells vs MCF7 cells ([1]; 100 nM): 1.58 fold
- geometric MFI, mtp53-expressing MDA-MB-468 cells vs MCF7 cells ([1]; 500 nM): 1.65 fold
- mtp53 and wtp53 protein levels upon treatment ([2]; WHIM25 and WHIM6 tumors): not affected
- PARP1 protein levels in response to the peptide ([2]; mtp53 WHIM25 tumor samples): deceased
- p73 protein levels in response to the peptide ([2]; mtp53 WHIM25 tumor samples): increased
- Cy5 fluorescence signal in the tumor site of WHIM6 compared to WHIM25 [3]: higher
- retention of Cy5p53Tet in mtp53 R273H WHIM25 versus wtp53 WHIM6 [4]: longer
- mitochondrial activity reduced by [5]: 10.6%
- mitochondrial activity reduced by [6]: 13.6%
